Converted amounts (≈) assume the structure as drawn.
Assay: water solubility of materials added to electron-injection buffer region
Type: physicochemical
Text: The table below lists the number of hydrophilic hpp groups, the number of hydrophobic tert-butyl groups, and water solubility of the materials added to the electron-injection buffer regions 914 in the light-emitting devices 7A to 7K.

solubility: 0.058 to 0.062 mg/mL (≈ 82.5 to 88.2 µM)
Structure (SMILES): CC(C)(C)c1ccc2c(c1)C1(c3cc(N4CCCN5CCCN=C54)ccc3-c3ccc(N4CCCN5CCCN=C54)cc31)c1cc(C(C)(C)C)ccc1-2 [2′,7′tBu-2,7hpp2SF, 1,1′-(2′,7′-di-tert-butyl-9,9′-spirobi[9H-fluorene]-2,7-diyl)bis(1,3,4,6,7,8-hexahydro-2H-pyrimido[1,2-a]pyrimidine)]

— patent US12707803B2, “Light-emitting device” (Semiconductor Energy Laboratory Co., Ltd., priority 2022, dated 2026)
